From US20110044938A1 (NYCOMED GMBH, priority 2006, published 2011) come the findings set out here.

The subject of test [1] is RKO (RKOp27) human colon adenocarcinoma cells. Briefly: Alamar Blue cell viability assay, anti-proliferative/cytotoxic activity on proliferating RKO subclones. Type of test: cell-based. As to conditions: RKOp27, 72 h, RKO p27 uninduced (proliferating) cells, value = class bound given in Table A, read-out: −logIC50 RKO p27 uninduced (proliferating) (converted). The method in brief: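 RKOp27 subclones (5000 cells/well) were exposed 24 h after seeding to semi-log compound dilutions in DMEM with 10% FCS, in quadruplicate, for 72 h at 37 °C. Viability was read by Alamar Blue fluorescence (544/590 nm) relative to untreated cells (1% DMSO medium). IC50 came from concentration-effect curves and is reported as −log IC50 [mol/l].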

The subject of test [2] is subclones of RKO colon adenocarcinoma cells (RKOp27 or RKOp21) arrested by Ponasterone A. Description: Alamar Blue cell viability assay, cell cycle specific mode of action: cells arrested by ectopic p27Kip1 induced by Ponasterone A versus proliferating cells. As to conditions: Homo sapiens, RKO p27 induced (arrested) cells, 10 μM Ponasterone A, 72 hours, value = class bound given in Table A, read-out: −logIC50 RKO p27 induced (arrested) (converted). In kind it is cell-based. The method in brief: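 RKOp27 or RKOp21 cells, 15000/well in DMEM/10% FCS, either arrested by p27Kip1 induced with 10 μM Ponasterone A or proliferating without inducer; compound added after 24 h, 72 h at 37° C. Alamar Blue fluorescence (544/590 nm), viability as % of untreated cells; −log IC50 reported.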
A general note: Alamar Blue is a resazurin reagent that responds to reducing activity.

`CC(CC(=O)Nc1sc2c(c1C#N)CCC(COC(=O)NCc1cnn(C)c1)C2)c1cccnc1` (centres unmarked) [Example 281, (1-Methyl-1H-pyrazol-4-ylmethyl)-carbamic acid 3-cyano-2-(3-pyridin-3-yl-butanoyl-amino)-4,5,6,7-tetrahydro-benzo[b] thiophen-6-ylmethyl ester]: the IC50 in test [1] was 0.501 to 2 µM; in test [2], not below 100 µM.

As for `CCOc1ccccc1CCC(=O)Nc1sc2c(c1C#N)CCC(COC(=O)NCCn1ccnc1)C2` (centres unmarked) [Example 164, (2-Imidazol-1-yl-ethyl)-carbamic acid 3-cyano-2-[3-(2-ethoxy-phenyl)-propanoylamino]-4,5,6,7-tetrahydro-benzo[b]thiophen-6-ylmethyl ester], the values for the IC50 in test [1] and in test [2] were not above 0.501 µM and not below 10 µM, respectively.

In the case of `CC(CC(=O)Nc1sc2c(c1C#N)CCC(COC(=O)N1CCOCC1)C2)c1ccccc1` (centres unmarked) [Example 378, Morpholine-4-carboxylic acid 3-cyano-2-[3-phenyl-butanoyl-amino]-4,5,6,7-tetrahydro-benzo[b] thiophen-6-ylmethyl ester], the IC50 was not above 0.501 µM in test [1] and not below 10 µM in test [2].

As for `Cc1cc(CNC(=O)OCC2CCc3c(sc(NC(=O)CCc4cccnc4)c3C#N)C2)on1` (centres unmarked) [Example 257, (3-Methyl-isoxazol-5-ylmethyl)-carbamic acid 3-cyano-2-(3-pyridin-3-yl-propanoylamino)-4,5,6,7-tetrahydro-benzo[b]thiophen-6-ylmethyl ester], the IC50 in test [1] was 0.501 to 2 µM; in test [2], not below 100 µM.

Regarding `CCOC(=O)OCC1CCc2c(sc(NC(=O)/C=C/c3cccnc3)c2C#N)C1` (centres unmarked) [Example 8, Carbonic acid 3-cyano-2-((E)-3-pyridin-3-yl-allanoylamino)-4,5,6,7-tetrahydro-benzo[b]thiophen-6-ylmethyl ester ethyl ester], the figures for the IC50 in test [1] and in test [2] were 0.501 to 2 µM and not below 100 µM, respectively.

Turning to `COc1cccc(C(C)CC(=O)Nc2sc3c(c2C#N)CCC(COC(=O)NCc2conc2C)C3)c1` (centres unmarked) [Example 365], the IC50 in test [1] was 0.501 to 2 µM; in test [2] it was not below 100 µM.

Consider `COc1cccc(C(C)CC(=O)Nc2sc3c(c2C#N)CCC(OC(=O)NCc2ccnn2C)C3)c1` (centres unmarked) [Example 277, (2-Methyl-2H-pyrazol-3-ylmethyl)-carbamic acid 3-cyano-2-[3-(3-methoxy-phenyl)-butanoylamino]-4,5,6,7-tetrahydro-benzo[b] thiophen-6-yl ester], for which the IC50 was not above 0.501 µM in test [1] and not below 100 µM in test [2].

On to `CCOc1ccccc1CCC(=O)Nc1sc2c(c1C#N)CCC(COC(=O)OCc1ccsn1)C2` (centres unmarked) [Example 202, Carbonic acid 3-cyano-2-[3-(2-ethoxy-phenyl)-propanoylamino]-4,5,6,7-tetrahydro-benzo[b]thiophen-6-ylmethyl ester isothiazol-3-ylmethyl ester], for which the IC50 in test [1] is not above 0.501 µM; in test [2], not below 100 µM.

For the compound `Cc1cc(CNC(=O)OC2CCc3c(sc(NC(=O)/C=C/c4cccnc4)c3C#N)C2)on1` (centres unmarked) [Example 94, (3-Methyl-isoxazol-5-ylmethyl)-carbamic acid 3-cyano-2-((E)-3-pyridin-3-yl-allanoylamino)-4,5,6,7-tetrahydro-benzo[b]thiophen-6-yl ester], the results for the IC50 in test [1] and in test [2] were not above 0.501 µM and not below 100 µM, respectively.

For the compound `COc1cccc(CCC(=O)Nc2sc3c(c2C#N)CCC(COC(=O)NCC2CCCO2)C3)c1` (centres unmarked) [Example 241, (Tetrahydro-furan-2-ylmethyl)-carbamic acid 3-cyano-2-[3-(3-methoxy-phenyl)-propanoylamino]-4,5,6,7-tetrahydro-benzo[b]thiophen-6-ylmethyl ester], the IC50 in test [1] is 0.501 to 2 µM; in test [2] it was not below 100 µM.

In the case of `Cc1csc(CNC(=O)OCC2CCc3c(sc(NC(=O)/C=C/c4cccnc4)c3C#N)C2)n1` (centres unmarked) [Example 67, (4-Methyl-thiazol-2-ylmethyl)-carbamic acid 3-cyano-2-((E)-3-pyridin-3-yl-allanoylamino)-4,5,6,7-tetrahydro-benzo[b]thiophen-6-ylmethyl ester], the IC50 in test [1] is not above 0.501 µM; in test [2] it was not below 100 µM.

`CCOc1ccccc1/C=C/C(=O)Nc1sc2c(c1C#N)CCC(OC(=O)NCc1cccnc1)C2` (centres unmarked) [Example 14, Pyridin-3-ylmethyl-carbamic acid 3-cyano-2-[(E)-3-(2-ethoxy-phenyl)-allanoylamino]-4,5,6,7-tetrahydro-benzo[b]thiophen-6-yl ester]: the IC50 in test [1] was 0.501 to 2 µM; in test [2], not below 50.1 µM.

Consider `CNC(=O)OC[C@@H]1CCc2c(sc(NC(=O)/C=C/c3cccnc3)c2C#N)C1` [Example 16b, Methyl-carbarnic acid (R)-3-cyano-2-((E)-3-pyridin-3-yl-allanoylamino)-4,5,6,7-tetrahydro-benzo[b]thiophen-6-ylmethyl ester], for which the IC50 in test [1] was 0.501 to 2 µM; in test [2] it was not below 100 µM.

`COc1cccc(C(C)CC(=O)Nc2sc3c(c2C#N)CCC(COC(=O)NCc2ccncc2)C3)c1` (centres unmarked) [Example 326, Pyridin-4-ylmethyl-carbamic acid 3-cyano-2-[3-(3-methoxy-phenyl)-butanoylamino]-4,5,6,7-tetrahydro-benzo[b]thiophen-6-ylmethyl ester]: the figures for the IC50 in test [1] and in test [2] were 0.501 to 2 µM and not below 10 µM, respectively.

`N#Cc1c(NC(=O)/C=C/c2cccnc2)sc2c1CCC(COC(=O)N1CC=CC1)C2` (centres unmarked) [Example 86, 2,5-Dihydro-pyrrole-1-carboxylic acid 3-cyano-2-((E)-3-pyridin-3-yl-allanoylamino)-4,5,6,7-tetrahydro-benzo[b]thiophen-6-ylmethyl ester]: the IC50 in test [1] is not above 0.501 µM; in test [2], not below 100 µM.

`CCn1nccc1CNC(=O)OC1CCc2c(sc(NC(=O)CC(C)c3ccccc3)c2C#N)C1` (centres unmarked) [Example 303, (2-Ethyl-2H-pyrazol-3-ylmethyl)-carbamic acid 3-cyano-2-(3-phenyl-butanoylamino)-4,5,6,7-tetrahydro-benzo[b] thiophen-6-yl ester]: the IC50 in test [1] was not above 0.501 µM; in test [2] it was not below 50.1 µM.

With `COCCNC(=O)OC1CCc2c(sc(NC(=O)CCc3cccc(OC)c3)c2C#N)C1` (centres unmarked) [Example 218, (2-Methoxy-ethyl)-carbamic acid 3-cyano-2-[3-(3-methoxy-phenyl)-propanoylamino]-4,5,6,7-tetrahydro-benzo[b]thiophen-6-yl ester], the figures for the IC50 in test [1] and in test [2] were not above 0.501 µM and not below 100 µM, respectively.

Take `CCOc1ccccc1CCC(=O)Nc1sc2c(c1C#N)CCC(OC(=O)NCc1cc(C)on1)C2` (centres unmarked) [Example 172, (5-Methyl-isoxazol-3-ylmethyl)-carbamic acid 3-cyano-2-[3-(2-ethoxy-phenyl)-propanoylamino]-4,5,6,7-tetrahydro-benzo[b]thiophen-6-yl ester]: the IC50 was not above 0.501 µM in test [1] and not below 100 µM in test [2].

For the compound `N#Cc1c(NC(=O)/C=C/c2cccnc2)sc2c1CCC(COC(=O)NCC1CC1)C2` (centres unmarked) [Example 105, Cyclopropylmethyl-carbamic acid 3-cyano-2-((E)-3-pyridin-3-yl-allanoylamino)-4,5,6,7-tetrahydro-benzo[b]thiophen-6-ylmethyl ester], the IC50 is not above 0.501 µM in test [1] and not below 100 µM in test [2].

Take `CCNC(=O)OC[C@H]1CCc2c(sc(NC(=O)CCc3cccnc3)c2C#N)C1` [Example 156a, (S)-Ethyl-carbamic acid 3-cyano-2-(3-pyridin-3-yl-propanoylamino)-4,5,6,7-tetrahydro-benzo[b]thiophen-6-ylmethyl ester]: the values for the IC50 in test [1] and in test [2] were 0.501 to 2 µM and not below 100 µM, respectively.

In the case of `COc1cccc(CCC(=O)Nc2sc3c(c2C#N)CCC(COC(=O)N2CCOCC2)C3)c1` (centres unmarked) [Example 245, Morpholine-4-carboxylic acid 3-cyano-2-[3-(3-methoxy-phenyl)-propanoylamino]-4,5,6,7-tetrahydro-benzo[b]thiophen-6-ylmethyl ester], the IC50 in test [1] was not above 0.501 µM; in test [2], not below 100 µM.

As for `CCOc1ccccc1CCC(=O)Nc1sc2c(c1C#N)CCC(COC(=O)NCc1cnoc1C)C2` (centres unmarked) [Example 212, (5-Methyl-isoxazol-4-ylmethyl)-carbamic acid 3-cyano-2-[3-(2-ethoxy-phenyl)-propanoylamino]-4,5,6,7-tetrahydro-benzo[b]thiophen-6-ylmethyl ester], the IC50 in test [1] is not above 0.501 µM; in test [2], not below 100 µM.

Regarding `COC1CN(C(=O)OC2CCc3c(sc(NC(=O)/C=C/c4cccnc4)c3C#N)C2)C1` (centres unmarked) [Example 118, 3-Methoxy-azetidine-1-carboxylic acid 3-cyano-2-((E)-3-pyridin-3-yl-allanoylamino)-4,5,6,7-tetrahydro-benzo[b]thiophen-6-yl ester], the IC50 in test [1] is 0.501 to 2 µM; in test [2], not below 100 µM.

Turning to `CC(CC(=O)Nc1sc2c(c1C#N)CCC(COC(=O)NC1CCOCC1)C2)c1ccccc1` (centres unmarked) [Example 309, (Tetrahydro-pyran-4-yl)-carbamic acid 3-cyano-2-(3-phenyl-butanoylamino)-4,5,6,7-tetrahydro-benzo[b]thiophen-6-ylmethyl ester], the IC50 in test [1] was not above 0.501 µM; in test [2], not below 50.1 µM.

With `COc1cccc(CCC(=O)Nc2sc3c(c2C#N)CCC(COC(=O)NCCn2ccnc2)C3)c1` (centres unmarked) [Example 236, (2-Imidazol-1-yl-ethyl)-carbamic acid 3-cyano-2-[3-(3-methoxy-phenyl)-propanoylamino]-4,5,6,7-tetrahydro-benzo[b]thiophen-6-ylmethyl ester], the IC50 was 0.501 to 2 µM in test [1] and not below 100 µM in test [2].
